The source of these data is paper PMC7262789 (Journal of medicinal chemistry, 2019).

Each structure is given as a SMILES string.

As usually defined, the Km is the substrate concentration at which the rate is half of its maximum.

The target of one assay is T1, isolated N-terminal domain of sEH (sEH-P) (Homo sapiens, UniProt P34913).
T1 sequence (P34913 1-222): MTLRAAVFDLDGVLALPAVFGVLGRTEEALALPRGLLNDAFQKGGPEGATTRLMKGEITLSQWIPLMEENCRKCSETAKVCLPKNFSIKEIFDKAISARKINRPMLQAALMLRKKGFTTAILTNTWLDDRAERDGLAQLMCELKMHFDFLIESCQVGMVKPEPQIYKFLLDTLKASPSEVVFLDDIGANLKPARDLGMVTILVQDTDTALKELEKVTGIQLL
Description: DiFMUP-based phosphatase assay, isolated N-terminal domain. The conditions noted are these: substrate.
As for `Cc1cc(=O)oc2c(F)c(OP(=O)(O)O)c(F)cc12` [DiFMUP, reference compound], the Km was found to be 220 µM.

Another assay concerns the target T2, full-length human sEH (Homo sapiens, UniProt P34913).
T2 sequence (P34913 1-555): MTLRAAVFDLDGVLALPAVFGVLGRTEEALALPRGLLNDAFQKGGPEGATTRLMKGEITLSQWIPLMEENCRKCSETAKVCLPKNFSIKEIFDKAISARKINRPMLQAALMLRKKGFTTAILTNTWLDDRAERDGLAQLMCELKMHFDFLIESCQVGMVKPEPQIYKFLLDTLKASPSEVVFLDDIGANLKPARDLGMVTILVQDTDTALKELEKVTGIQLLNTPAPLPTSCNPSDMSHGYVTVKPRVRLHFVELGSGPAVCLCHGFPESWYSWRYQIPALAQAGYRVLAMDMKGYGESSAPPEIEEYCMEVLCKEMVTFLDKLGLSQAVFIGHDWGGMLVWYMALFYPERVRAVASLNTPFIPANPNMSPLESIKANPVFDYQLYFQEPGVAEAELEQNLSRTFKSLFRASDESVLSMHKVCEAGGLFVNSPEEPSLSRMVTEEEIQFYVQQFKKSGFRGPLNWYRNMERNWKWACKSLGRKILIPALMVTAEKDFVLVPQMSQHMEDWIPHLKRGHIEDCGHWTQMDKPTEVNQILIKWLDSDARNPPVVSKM
Briefly: DiFMUP-based phosphatase assay, full-length sEH. Conditions: substrate.
Turning to `Cc1cc(=O)oc2c(F)c(OP(=O)(O)O)c(F)cc12` [DiFMUP, reference compound], the Km was found to be 628 µM.

In a further assay the target is T3, C-terminal domain of sEH (sEH-H) (Homo sapiens, UniProt P34913).
T3 sequence (P34913 235-555 limits assumed): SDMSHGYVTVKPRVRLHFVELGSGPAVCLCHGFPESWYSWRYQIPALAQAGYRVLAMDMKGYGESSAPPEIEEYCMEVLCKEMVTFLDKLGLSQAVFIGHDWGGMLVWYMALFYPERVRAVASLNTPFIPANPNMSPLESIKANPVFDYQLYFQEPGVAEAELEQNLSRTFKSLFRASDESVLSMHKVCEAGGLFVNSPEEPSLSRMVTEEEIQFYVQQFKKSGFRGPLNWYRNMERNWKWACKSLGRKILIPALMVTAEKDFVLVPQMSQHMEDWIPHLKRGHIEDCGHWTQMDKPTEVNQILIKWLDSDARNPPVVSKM
Briefly: Differential scanning fluorimetry. The assay is classed as binding. The conditions noted are these: inhibitor 50 μM. (In general: In DSF a fluorescence change marks the thermal transition of the protein.)
Turning to `O=C(Nc1ccc(I)cc1)NC1CCCCC1` [CIU, N-cyclohexyl-N′-(4-iodophenyl)urea, reference compound], the “stabilization of the C-terminal domain in DSF” value is recorded as “significantly increased”.

Another assay has as its target T4, recombinant sEH-P domain (N-terminal domain of sEH) (Homo sapiens, UniProt P34913).
T4 sequence (P34913 1-222): T1 sequence (P34913 1-222)
Description: FDP-based phosphatase assay, isolated sEH-P domain. The assay is classed as biochemical. Conditions: FDP substrate, recombinant sEH-P domain.
Regarding `O=C(O)CCc1nc(-c2ccccc2F)c(-c2ccccc2)o1` [20a, 3-(4-(2-Fluorophenyl)-5-phenyloxazol-2-yl)propanoic Acid], the “inhibitory potency toward sEH-P (SAR statement in words)” value (“inhibitory potency toward sEH-P” for short) is on record as “poorly tolerated”.
The same measure, in the same setting: in the case of `O=C(O)CCc1nc(-c2ccccc2Cl)c(-c2ccccc2)o1` [20b, 3-(4-(2-Chlorophenyl)-5-phenyloxazol-2-yl)propanoic Acid] it was “poorly tolerated”; in that of `N#Cc1cccc(-c2nc(CCC(=O)O)oc2-c2ccccc2)c1` [20c, 3-(4-(3-Cyanophenyl)-5-phenyloxazol-2-yl)propanoic Acid], “retained similar potency as 5”; in that of `O=C(O)CCc1nc(-c2cccc(F)c2)c(-c2ccccc2)o1` [20d, 3-(4-(3-Fluorophenyl)-5-phenyloxazol-2-yl)propanoic Acid], “retained similar potency as 5”.
Same read-out and setting: in the case of `O=C(O)CCc1nc(-c2ccc(F)cc2)c(-c2ccccc2)o1` [20e, 3-(4-(4-Fluorophenyl)-5-phenyloxazol-2-yl)propanoic Acid] it was “only slightly diminished the potency”; in that of `O=C(O)CCc1nc(-c2ccc(C(F)(F)F)cc2)c(-c2ccccc2)o1` [20f, 3-(5-Phenyl-4-(4-(trifluoromethyl)phenyl)oxazol-2-yl)propanoic Acid], “loss of activity”.
On the same count and under the same terms, for `N#Cc1ccc(-c2nc(CCC(=O)O)oc2-c2ccccc2)cc1` [20g, 3-(4-(4-Cyanophenyl)-5-phenyloxazol-2-yl)propanoic Acid] the value was “loss of activity”; for `O=C(O)CCc1nc(-c2ccc(Cl)cc2)c(-c2ccccc2)o1` [20h, 3-(4-(4-Chlorophenyl)-5-phenyloxazol-2-yl)propanoic Acid], “slightly enhanced inhibitory potency”; for `COc1ccc(-c2nc(CCC(=O)O)oc2-c2ccccc2)cc1` [20i, 3-(4-(4-Methoxyphenyl)-5-phenyloxazol-2-yl)propanoic Acid], “decreased the activity”.
For `O=C(O)CCc1nc(-c2ccc(Cl)cc2Cl)c(-c2ccccc2)o1` [20l, 3-(4-(2,4-Dichlorophenyl)-5-phenyloxazol-2-yl)propanoic Acid], the “inhibitory potency toward sEH-P” value is reported as “did not lead to potency improvement”.
The same measure, in the same setting: in the case of `O=C(O)CCc1nc(-c2cc(Cl)cc(Cl)c2)c(-c2ccccc2)o1` [20m, 3-(4-(3,5-Dichlorophenyl)-5-phenyloxazol-2-yl)propanoic Acid] it was “did not lead to potency improvement”; in that of `O=C(O)c1ccccc1-c1nc(-c2ccc(Cl)c(Cl)c2)c(-c2ccccc2)o1` [22c, 2-(4-(3,4-Dichlorophenyl)-5-phenyloxazol-2-yl)benzoic Acid], “did not retain this high potency”.
For the compound `O=C(O)c1ccc(-c2nc(-c3ccc(Cl)c(Cl)c3)c(-c3ccccc3)o2)cc1` [22e, 4-(4-(3,4-Dichlorophenyl)-5-phenyloxazol-2-yl)benzoic Acid], the “inhibitory potency toward sEH-P” value was “did not retain this high potency”.
On the same count and under the same terms, for `O=C(O)CCCc1nc(-c2ccc(Cl)c(Cl)c2)c(-c2ccncc2)o1` [28a, 4-(4-(3,4-Dichlorophenyl)-5-(pyridin-4-yl)oxazol-2-yl)butanoic Acid] the value was “not favored”; for `O=C(O)CCCc1nc(-c2ccc(Cl)c(Cl)c2)c(-c2cccnc2)o1` [28b, 4-(4-(3,4-Dichlorophenyl)-5-(pyridin-3-yl)oxazol-2-yl)butanoic Acid], “not favored”; for `O=C(O)CCCc1nc(-c2ccc(Cl)c(Cl)c2)c(-c2cccc(F)c2)o1` [28e, 4-(4-(3,4-Dichlorophenyl)-5-(3-fluorophenyl)oxazol-2-yl)butanoic Acid], “slight preference”.
Same read-out and setting: in the case of `N#Cc1cccc(-c2oc(CCCC(=O)O)nc2-c2ccc(Cl)c(Cl)c2)c1` [28g, 4-(5-(3-Cyanophenyl)-4-(3,4-dichlorophenyl)oxazol-2-yl)butanoic Acid] it was “slight preference”.
Regarding `C#Cc1cccc(-c2oc(CCCC(=O)O)nc2-c2ccc(Cl)c(Cl)c2)c1` [28j, 4-(4-(3,4-Dichlorophenyl)-5-(3-ethynylphenyl)oxazol-2-yl)butanoic Acid], the “inhibitory potency toward sEH-P” value is listed as “slight preference”.
As for `O=C(O)CSc1nc(-c2ccccc2)c(-c2ccccc2)o1` [compound 9, 2-((4,5-Diphenyloxazol-2-yl)thio)acetic Acid], the “inhibitory potency toward sEH-P” value is listed as “slightly diminished the potency”.
On the same count and under the same terms, in the case of `NC(=O)CCc1nc(-c2ccccc2)c(-c2ccccc2)o1` [compound 12, 3-(4,5-Diphenyloxazol-2-yl)propanamide] it was “complete loss of activity”; in that of `O=C(O)CCCc1nc(-c2ccc(Cl)c(Cl)c2)co1` [compound 25, 4-(4-(3,4-Dichlorophenyl)oxazol-2-yl)butanoic Acid], “potency dropped dramatically”; in that of `O=C(O)CCCc1nc(-c2ccc(Cl)c(Cl)c2)c(Br)o1` [compound 26, 4-(5-Bromo-4-(3,4-dichlorophenyl)oxazol-2-yl)butanoic Acid], “partially restored”.

The assay is the same for the next values; noted with them: rigidization of the ethyl linker by a double bond.
On to `O=C(O)/C=C/c1nc(-c2ccc(Cl)c(Cl)c2)c(-c2ccccc2)o1` [22a, 3-(4-(3,4-Dichlorophenyl)-5-phenyloxazol-2-yl)acrylic Acid], for which the loss of potency amounted to 2 fold.

The same assay, now with this note: second chlorine at meta position, compared with 20h.
Regarding `O=C(O)CCc1nc(-c2ccc(Cl)c(Cl)c2)c(-c2ccccc2)o1` [20k, 3-(4-(3,4-Dichlorophenyl)-5-phenyloxazol-2-yl)propanoic Acid], the “increase in sEH-P inhibition” value is “more than 10 fold”.

In another assay the target is T5, N-terminal domain of sEH (sEH-P) (Homo sapiens, UniProt P34913).
T5 sequence (P34913 2-224): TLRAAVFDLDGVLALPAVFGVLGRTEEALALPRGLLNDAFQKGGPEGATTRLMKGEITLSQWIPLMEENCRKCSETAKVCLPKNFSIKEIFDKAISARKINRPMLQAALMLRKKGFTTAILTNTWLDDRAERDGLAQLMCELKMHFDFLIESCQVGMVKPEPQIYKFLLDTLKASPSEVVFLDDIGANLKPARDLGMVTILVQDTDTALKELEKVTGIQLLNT
Briefly: Differential scanning fluorimetry. The conditions noted are these: inhibitor 50 μM. The assay is classed as binding.
Consider `O=C(Nc1ccc(I)cc1)NC1CCCCC1` [CIU, N-cyclohexyl-N′-(4-iodophenyl)urea, reference compound], for which the “stabilization of the N-terminal domain in DSF” value was “no stabilizing effect”.
On the same count and under the same terms, in the case of `CC(=O)N[C@@H](CSC/C=C(\C)CC/C=C(\C)CCC=C(C)C)C(=O)O` [compound 2, N-acetyl-S-farnesyl-L-cysteine] it was “able to stabilize”.
